The text below walks through data of ChEMBL document CHEMBL1121896, “Potential histamine H2-receptor blockers. 3- and 2-indole derivatives as immobile analogues of tautomeric forms of cimetidine” (J Med Chem, 1981).

Active and inactive are the calls of the source. No cut-off for these calls is given here. Where only a bound is given, the exact number is not on record here.

Experiment [1] addresses Histamine H2 receptor (Cavia porcellus) (UniProt P47747). As to the kind of experiment: Ratio of potency (3*10e-5M) to that of agonist for histamine H2 receptor, in an assay for guinea pig atria chronotropic response. In kind it is functional.
The target is the same in experiment [2]. As to the kind of experiment: Competitive antagonism of compound at histamine H2 receptor compared to 4-methylhistamine induced chronotropic response in guinea pig atria expressed as potency ratio; Not significantly greater than 1.0 (Inactive). It is filed as functional.
For experiment [3] the target is unchanged. Description: Competitive antagonism of compound at histamine H2 receptor compared to 4-methylhistamine induced chronotropic response in guinea pig atria; + Potency ratio greater than 1.0. It is filed as functional.
For experiment [4] the target is unchanged. As to the kind of experiment: Competitive antagonism of compound at histamine H2 receptor compared to 4-methylhistamine induced chronotropic response in guinea pig atria; nonparallel shift in dose response curve. It is filed as functional. As to conditions: filed as antagonist.
The target is the same in experiment [5]. As to the kind of experiment: Competitive antagonism of compound at histamine H2 receptor compared to 4-methylhistamine as effect on resting heart rate in guinea pig atria expressed as potency ratio; (Inactive). It is filed as functional, tissue-based.
For experiment [6] the target is unchanged. Description: Competitive antagonism of compound at histamine H2 receptor compared to 4-methylhistamine as effect on resting heart rate in guinea pig atria expressed as potency ratio; Inactive. In kind it is functional, tissue-based.
Experiment [7] has the same target. Description: Ratio of potency (3*10e-5M) to that of agonist for Histamine H2 receptor, in an assay for guinea pig atria chronotropic response. In kind it is functional.

Chain of Histamine H2 receptor (Cavia porcellus) (P47747 whole entry): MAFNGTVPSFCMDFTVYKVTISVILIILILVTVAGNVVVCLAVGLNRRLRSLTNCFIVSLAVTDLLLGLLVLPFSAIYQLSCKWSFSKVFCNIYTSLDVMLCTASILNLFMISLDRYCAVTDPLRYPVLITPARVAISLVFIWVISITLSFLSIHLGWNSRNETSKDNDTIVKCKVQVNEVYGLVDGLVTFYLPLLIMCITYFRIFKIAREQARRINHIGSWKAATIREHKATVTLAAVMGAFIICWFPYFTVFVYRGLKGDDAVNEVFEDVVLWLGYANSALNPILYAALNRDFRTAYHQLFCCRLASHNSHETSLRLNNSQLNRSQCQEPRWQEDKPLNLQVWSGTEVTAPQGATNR

As to `C/N=C(\S)NCCSCc1c[nH]c2ccccc12`, the Potency ratio in experiment [1] was determined as 1.06. Further, in experiment [2], the Antagonism was above 1.
In the same order, the values of `C/N=C(\NC#N)NCCSCc1c[nH]c2ccccc12` are 0.84 and “inactive”.
With `C/N=C(\S)NCCSCc1cc2ccccc2[nH]1`, in experiment [1], the Potency ratio was 3.35. Moreover, the Antagonism in experiment [3] was above 1.
As to `CN/C(=N\CCSCc1nc[nH]c1C)NC#N`, the Potency ratio in experiment [1] turned out to be 36.8. For the same molecule, the Antagonism in experiment [3] is above 1.
On to `CS/C(=N\CCSCc1cc2ccccc2[nH]1)NC#N`, for which, in experiment [1], the Potency ratio came out at 6.04. Further, in experiment [4], the Antagonism entry was “Non-competitive antagonist”.
Turning to `CS/C(=N\CCSCc1c[nH]c2ccccc12)NC#N`, the Potency ratio in experiment [1] came to 2.56. For the same molecule, the Antagonism in experiment [3] was above 1.
As to `C/N=C(\NC#N)NCCSCc1cc2ccccc2[nH]1`, the Potency ratio in experiment [1] was determined as 1.76. Besides, in experiment [5], the Antagonism result was “inactive”.
In the case of `S=C(NCCSCc1cc2ccccc2[nH]1)Nc1ccccc1`, the Potency ratio in experiment [1] was 2.54. The Antagonism entry in experiment [6] was “inactive”.
Turning to `S=C(NCCSCc1c[nH]c2ccccc12)Nc1ccccc1`, the Potency ratio in experiment [7] came out at 1.16. For the same molecule, the Antagonism result in experiment [2] is “inactive”.
